Measurements as given in patent US12702715B2, “Targeted RNA degradation allows precision repurposing of protein-targeted small molecule medicines to RNA” (University of Florida Research Foundation, Incorporated, priority 2020, dated 2026).
Entries after “also recorded” stand apart in the source; their conditions may differ.

Assays:
Type in all cases: cell-based, human
miR-21 = test: RT-qPCR of mature miR-21 levels in MDA-MB-231 cells
Experimental: Cell Culture. Cells were cultured at 37° C. and 5% CO2. […] For compound treatment, compound stocks either in DMSO or water were diluted in growth medium and added to cells for the indicated time. […] After transfection, the medium was replaced with growth medium containing the compound of interest, prepared as described above. The RNase L-targeting siRNA or a control siRNA was transfected with Lipofectamine RNAiMAX reagent (Invitrogen) per the manufacturer's protocol.
(§1) RNA Isolation and Quantitative Real-Time PCR (RT-qPCR). After treatment, total RNA was extracted and purified by using the Zymo Quick-RNA mini prep kit per the manufacturer's protocol. Reverse Transcription (RT) for mature miRNAs as well as pri- and pre-miR-21 was completed on 200 ng of RNA by using a miScript 11 RT kit (QIAGEN) according to manufacturer's protocol. RT of mRNAs was performed by using QScript kit (Quanta Bio). An Applied Biosystems QS5 384-well PCR system was used to complete qPCR experiments using Power Sybr Green Mater Mix (Life Technologies) as described previously^6.

pre-miR-21 [1] = test: RT-qPCR of pre-miR-21 levels in MDA-MB-231 cells
Experimental: Cell Culture. Cells were cultured at 37° C. and 5% CO2. MDA-MB-231 cells (HTB-26, ATCC) were cultured in RMPI 1640 medium with L-glutamine & 25 mM HEPES supplemented with 1× Antibiotic/Antimycotic solution (Corning) and 10% FBS. MCF-10A cells (CRL-10317, ATCC) were cultured in 1×DMEM/F12 50/50 with L-glutamine & 15 mM HEPES (Corning) supplemented with 20% FBS, 1× Antibiotic/Antimycotic solution, 20 ng/mL human epidermal growth factor (Pepro Tech, Inc.), 10 μg/mL insulin (Sigma-Aldrich), and […] hydrocortisone (Pfaltz & Bauer). For compound treatment, compound stocks either in DMSO or water were diluted in growth medium and added to cells for the indicated time. Plasmid DNA to overexpress pre-miR-21 in pcDNA 3.1 (Addgene 21114) or a plasmid DNA encoding the pre-miR-21 mutant (custom purchased from GenScript USA, Inc.) was transfected with jetPRIME per the manufacturer's protocol. After transfection, the medium was replaced with growth medium containing the compound of interest, prepared as described above. The RNase L-targeting siRNA or a control siRNA was transfected with Lipofectamine RNAiMAX reagent (Invitrogen) per the manufacturer's protocol.
as §1

[2] = test system: RTK / phosphorylation of ERK (pERK); test: Western blot of ERK phosphorylation (functional RTK inhibition) in MDA-MB-231 cells
Experimental: Western Blotting. MDA-MB-231 cells were plated in 6-well plates. […] The cells were harvested by trypsinization, and total protein was extracted with MPER (Mammalian Protein Extraction Reagent, Thermo Scientific) as previously described^6. Protein concentrations were determined by using a Pierce Micro BCA Protein Assay kit (Fisher Scientific). […] ImageJ software was used for quantification of the protein bands. […] In each case, the secondary antibody was diluted two times more than the primary antibody.

pre-miR-21 [3] = test: Cellular Chem-CLIP and C-Chem-CLIP to study occupancy of pre-miR-21; conditions: increasing concentrations, 4 constant
Experimental: Cellular Chem-CLIP and C-Chem-CLIP to Study Occupancy of pre-miR-2L MDA-MB-231 cells in 100 mm dishes (~90% confluency) were treated with 4 or 5 for 6 h at 37° C. Then the cells were washed with 1×DPBS and cross-linked under 365 nm light for 10 min in ice cold 1×DPBS. The cells were harvested by scraping and pelleted by centrifugation. Total RNA was extracted by using the miRNeasy mini kit (Qiagen) per the manufacturer's protocol. Approximately 50 μg of total RNA was clicked to disulfide biotin azide as described in the “In Vitro Chem-CLIP and Competitive Chem-CLIP (C-Chem-CLIP)” section. Streptavidin beads (10 μL) were added, and the samples were incubated, with shaking, for 2 h at 37° C. The beads were then washed with 1× Wash Buffer (10 mM Tris-HCl, pH 7.0, 4 M NaCl, 1 mM EDTA) three times and then once with nanopure water. Bound RNAs were eluted from the beads by incubating with 200 μL of 1:1 TCEP (200 mM) pre-reduced with 600 mM of K2CO3 for 30 min at 37° C. The reaction was quenched by treatment with an equal volume of 400 mM of iodoacetamide for 30 min at room temperature. The supernatant was collected, and the beads were washed once with nanopure water: the water was added to the eluant. The combined eluant was cleaned up using RNAClean XP beads according to the manufacturer's protocol. The obtained RNA was then subjected to RT-qPCR. Enrichment of pre-miR-21 was calculated as previously described^6. Cellular C-Chem-CLIP was completed by pre-treating with 1 (1 or 5 μM) or 3 (1 or 5 μM) for 6 h, followed by dosing with 4 (5 μM) for 6 h. Sample preparation and data analysis were completed as described above for cellular Chem-CLIP studies.

PTEN = PTEN luciferase assay; conditions: MDA-MB-231
Experimental: PTEN Luciferase Assay. To study de-repression of PTEN, a luciferase-based cellular assay was performed as previously described^6. Briefly, MDA-MB-231 cells (~60% confluency) in 48-well plates were co-transfected with plasmids encoding Renilla luciferase (for normalization) and firefly luciferase fused to the 3′ UTR of PTEN by using Lipofectamine 2000 according to the manufacturer's protocol. After 5 h, the cells were treated with the compounds diluted in growth medium. Luciferase assay were then completed as previously described^4, 9.

FLT3 = FLT3 degradation Western blot in MDA-MB-231 cells; conditions: MDA-MB-231
Experimental: In each case, the secondary antibody was diluted two times more than the primary antibody.

## Cc1ncsc1-c1ccc(CNC(=O)[C@@H]2C[C@@H](O)CN2C(=O)[C@@H](NC(=O)NCCOCCOCCOCCOCCC(=O)NCCN2CCN(c3ccc4[nH]c(-c5c(N)c6c(F)cccc6[nH]c5=O)nc4c3)CC2)C(C)(C)C)cc1 [Compound 3, Protac-Dovitinib]
miR-21; MDA-MB-231
  fold increase in potency / miR-21 inhibitory activity compared with 1: similar
miR-21; MDA-MB-231, RT-qPCR
  mature miR-21 levels: reduced
pre-miR-21 [1]; MDA-MB-231, RT-qPCR
  pre-miR-21 levels: increased; also recorded: boosted
pre-miR-21 [1]; constant concentration of 2 (1 μM), increasing competitor
  competition of cleavage of pre-miR-21 by RIBOTAC 2: abated the cleavage
[2]
  fold increase of RTK inhibition relative to 1: 5 fold
[2]; Homo sapiens, MDA-MB-231
  IC50: 20 nM
[2]; Western blot
  inhibition of ERK phosphorylation compared to 1: more potent than 1
pre-miR-21 [3]
  competition of pull-down of pre-miR-21 with 4: similarly diminished
PTEN
  PTEN expression (luciferase-based assay): derepressed
FLT3
  FLT3 levels / degradation: low nanomolar activity; also recorded: induced degradation of FLT3 in a dose-dependent manner
